Converted amounts (≈) assume the structure as drawn. Where two headings read alike, the source gives them in different places.

The results in this text go back to patent US20130216590A1, “TOPICAL ANTIVIRAL FORMULATIONS FOR PREVENTION OF TRANSMISSION OF HSV-2” (priority 2010, published 2013).

In one data set the test system is HIV-1 (NL4.3). The data set is described as follows: Co-infection of TZM-bl cells with HIV-1 and HSV-2: LTR-driven luciferase. The data set is classed as cell-based. To be noted: presence or absence of an ongoing HSV-2 infection; data not shown. As for the experimental part: The TZM-bl cell line is derived from HeLa cells and expresses high levels of CD4, CCR5 and CXCR4. In addition, this cell line is stably transduced with a LTR-driven firefly luciferase and E. coli-galactosidase gene (15). In a 96-well tray, 10,000 TZM-bl cells were seeded on day 1. […] Next, 100 μl of a virus suspension containing either HIV-1 (NL4.3), HSV-2 (G) or both viruses together was administered. Two to three days post infection, HIV-1 infection was monitored based on the determination of luciferase activity. For this means, 100 μl of culture supernatant was removed and 100 μl of Bright-Glo Luciferase Assay Substrate (Promega, Madison, USA) was added. The luminescence signal was measured using the Safire 2 microtiter plate reader (Tecan, Männedorf, Switzerland). A control condition containing only mock-infected cells was also included to measure the background luminescence levels. Three days post infection, HSV-2-induced cytopathicity was recorded microscopically based on giant cell formation.

The subject of data set [1] is thymidine kinase-deficient HSV-2 clinical isolates. The data set is described as follows: microbe, parasite or virus in culture. The data set is classed as cell-based. To be noted: Human alphaherpesvirus 2, Fibroblast.
The next data set concerns HSV-2G. Description: Human ex vivo tonsillar tissue coinfected with HSV-2G and HIV-1: HSV-2G DNA release. In kind it is cell-based. The conditions noted are these: 66 μg/ml, coinfected with HIV-1. The procedure: (§1) For each experimental condition 16 tissue blocks were immersed in 500 μl of a HSV-2 (strain G) suspension for 2 hours at 37° C., washed three times with PBS and then placed on the gelfoam rafts. Tenofovir was added during the infection and replenished at each culture medium change. Herpes simplex viral replication was evaluated by the release of viral DNA into the culture medium as measured by quantitative real-time PCR (17). HIV-1 replication was evaluated by the release of p24 capsid antigen using a bead-based assay (18).

The next data set concerns HSV-2 (G). The data set is described as follows: Organotypic epithelial raft cultures infected with HSV-2. The data set is classed as cell-based. The procedure: (§2) For the preparation of epidermal equivalents, a collagen matrix solution was made with collagen mixed on ice with 10-fold concentrated HAM's F12 media, 10-fold reconstitution buffer and Swiss 3T3 J2 fibroblasts. One milliliter of the collagen matrix solution was poured into the wells of 24-well microtiter plates. After gel equilibration with 1 ml of growth medium overnight at 37° C., 2.5×10^5 PHK cells were seeded on the top of the gels and maintained submerged for 24-48 hours. The collagen rafts were raised and placed onto stainless-steel grids at the interface between air and liquid culture medium. The growth medium was a mixture of ⅓ HAM F12 and ⅔ Dulbecco's modified Eagle's medium, with the same supplements as used for the Keratinocyte-SFM. Epithelial cells were allowed to stratify, the medium being replaced every 2-3 days. For the evaluation of the antiviral effects of the compounds in the raft system, two series of rafts were run in parallel, one for histological examination and the other one for quantification of viral production by a plaque reduction assay. Rafts were infected with 5,000 PFU of HSV-1 (KOS) or […] strains after 10 days post-lifting and then the medium was replaced by medium containing different dilutions of the compounds. The growth medium containing the different concentrations of the compounds was changed two days later and 3 days later (after 15 days of differentiation), one series of rafts was fixed in 10% buffered formalin, embedded in paraffin and stained with hematoxylin and eosin for histological evaluation. Another series of rafts was used to quantify virus production. For that purpose, each raft was frozen in 3 ml phosphate buffer saline (PBS) and thawed to release the virus from the infected epithelium. Supernatants were clarified by centrifugation at 1,800 rpm and titrated by a plaque assay in HEL cell cultures. Virus production in each raft was then calculated. Two rafts were used for each drug concentration to determine the effects of the compounds on virus yield.

The subject of the next data set is HSV-1 and HSV-2. Description: HSV cytopathic effect (CPE) reduction assay, laboratory strains, HEL cell monolayers and PHKs. The data set is classed as cell-based, herpes simplex virus. The conditions noted are these: HEL, read-out: EC50, inhibition of virus-induced cytopathicity.
For data set [2], the system named is HSV-1 wt clinical isolates. Description: HSV CPE reduction assay, clinical isolates in HEL fibroblast cell cultures. The data set is classed as cell-based. To be noted: Human alphaherpesvirus 1, Fibroblast.
The test system of data set [3] is HSV-2 strain MS (HSV-2MS). The data set is described as follows: Human ex vivo tonsillar tissue, HSV DNA release by real-time PCR. In kind it is cell-based.
Data set [4] has as its system organotypic raft cultures of keratinocytes. Description: Toxic effects in organotypic epithelial raft cultures. The data set is classed as cell-based. The conditions noted are these: highest concentration, 200 μg/ml. The procedure:
as §2

The subject of the next data set is HSV-2 (strain G). Description: Human ex vivo cervico-vaginal tissue, HSV-2 DNA release. The data set is classed as cell-based. The conditions noted are these: 166 μg/ml. The procedure: as §1
Data set [5] has as its system thymidine kinase-deficient HSV-1 clinical isolates. Description: microbe, parasite or virus in culture. The data set is classed as cell-based. To be noted: Human alphaherpesvirus 1, Fibroblast.

For `C[C@H](Cn1cnc2c(N)ncnc21)OCP(=O)(O)O` [tenofovir, (R)-9-(2-phosphonylmethoxypropyl)adenine], the “suppression of HIV-1” value in the data set with HIV-1 (NL4.3) is reported as “equally suppressed”. Further, the EC50 in data set [1] (read-out: mean EC50) was 152 µg/mL (≈ 529 µM); in [1] (read-out: range of EC50) it was 131 to 179 µg/mL (≈ 456 to 623 µM); in the data set on HSV-1 and HSV-2, 100 to 200 µg/mL (≈ 348 to 696 µM); in [2] (read-out: mean EC50), 130 µg/mL (≈ 453 µM); in [2] (read-out: range of EC50), 114 to 160 µg/mL (≈ 397 to 557 µM); in [3] (Human alphaherpesvirus 2, read-out: EC50, suppression of replication), 19 µg/mL (≈ 66.2 µM). In addition, the figures for the concentration for a half-maximal effect (EC50) in data set [5] (read-out: mean EC50) and in [5] (read-out: range of EC50) were at least 166 µg/mL and at least 117 µg/mL, respectively. For the same compound, the “HSV-2G DNA release into culture medium” value in the data set with HSV-2G (IQR 4.3-5.7, untreated 7.3) was determined as 5 log10 copies/ml. The “suppression of HSV-2G replication” value in the data set on HSV-2G (n=6) is reported as 96±1%. For the same compound, the “protection of the epithelium against HSV-2-induced cytopathicity (morphological analysis)” value with HSV-2 (G) (2 μg/ml) is “inactive”; in the data set on HSV-2 (G) (20 μg/ml and 5 μg/ml) it was “partially protective”; with HSV-2 (G) (200 μg/ml and 50 μg/ml), “protected the entire epithelium”. Also, in the data set on HSV-2 (G) (HSV-2, 20 μg/ml), the “reduction in virus production” value is listed as 0.9 log. The “reduction in virus yield” value with HSV-2 (G) (HSV-2, 50 μg/ml) amounted to 1.75 logs. In addition, the “log reduction in virus production (PFU) per raft” value with HSV-2 (G) (HSV-2, 200 μg/ml) is recorded as 5.4 log. Also, the “reduction of virus replication in the rafts” value with HSV-2 (G) (lower concentrations (below 20 μg/ml)) was “unable to reduce virus replication”. The “reduction of replication compared to infected donor matched-untreated tissue” value in [3] (66 μg/ml, HSV-2MS) was 89±2%. Moreover, the “release of viral DNA in culture medium” value in [3] (66 μg/ml, day 9 post infection, IQR 5.7-6.1, untreated 7.3) turned out to be 5.8 log10 DNA copies/ml. Also, the “toxic effects (increase in number of dead cells or alteration of differentiation)” value in [4] is listed as “No toxic effects”. The “viral production (cumulative viral DNA release)” value in the data set with HSV-2 (strain G) (12 days of culture, IQR 4.8-5.7, untreated 6.6) was found to be 5.5 log10 copies/mL. Moreover, in the data set on HSV-2 (strain G) (n=5), the “reduction of viral replication (averaged over experiments)” value came to 78±9%.
